Measurements reported in PMC10439952, “JT002, a small molecule inhibitor of the NLRP3 inflammasome for the treatment of autoinflammatory disorders” (Scientific Reports, 2023).

System: Nlrp3 A350V/+ CreT knock-in mice
Assay: Nlrp3 A350V/+ CreT knock-in mouse model of Muckle Wells syndrome
Type: in vivo
Settings: 30 mg/kg orally once daily
Procedure: The effect of JT002 treatment on systemic and hepatic inflammation and hepatic fibrosis was evaluated in vivo using a murine Nlrp3 knock-in (KI) model of human Muckle Wells syndrome. In humans, mutation of alanine 352 to valine (A352V) in NLRP3 results in the constitutively active NLRP3 inflammasome which leads to excessive cytokine production and a clinical presentation characteristic of MWS[11]. The Nlrp3^A350V/+ CreT KI murine model (Nlrp3 KI model) contains a conditional A350V autosomal-dominant mutation that is analogous to the human A352V mutation[13],[23],[25]. In this model, mutant Nlrp3 expression occurs only in mice expressing Cre recombinase, which is inducible through the administration of tamoxifen, thus allowing for temporal control of the gain-of-function mutant Nlrp3. In vehicle-control mice, tamoxifen-induced activation of mutant Nlrp3 produces an inflammatory and fibrotic phenotype consisting of weight loss, increased liver weight, elevated liver alanine aminotransferase (ALT), systemic and hepatic neutrophilia, increased hepatic collagen deposition, and increased numbers of activated hepatic stellate cells (HSCs)[13],[23],[25]. In the Nlrp3^A350V/+ CreT study, vehicle or 30 mg/kg JT002 (n = 4/group) was dosed orally once daily starting one day prior to the first administration of tamoxifen. One animal from each group was found dead on day 4 and day 11 from the JT002 dosed group and the vehicle group, respectively, leaving only 3 animals per group. […] Serum levels of ALT in vehicle-treated mice averaged 186 U/L while ALT levels were reduced to 93 U/L in mice administered JT002 (Fig. 4C).
Total RNA was isolated from liver tissue (~ 50 mg) via syringe homogenization in TRIzol™ and cDNA synthesized using the iScript™ cDNA Synthesis kit (Biorad, Hercules, CA, USA). Real-time PCR was performed using TaqMan Fast Advanced Master Mix (ThermoFisher) and samples were amplified using QuantStudio-7 (ThermoFisher) in accordance with manufacturers’ instructions. The following TaqMan Gene Expression Assays (cat. no. 4331182, Applied Biosystems, Foster City, CA) were used: Acta2, Mm00725412_s1; Ctgf, Mm01192933_g1; Mpo, Mm01298424_m1; Pycard, Mm00445747_g1; Casp1, Mm00438023_m1; Il1b assay ID Mm00434228_m1.
Nlrp3^A350V/+ CreT knock-in mice were provided by Hal M. Hoffman, University of California, San Diego, USA. The study was performed using two randomized groups of male and female Nlrp3^A350V/+ CreT mice (n = 4/group) between 6- and 8-weeks of age at the start of the study. Vehicle (0.5% methyl cellulose, 0.25% Tween 80 in 50 mM NaH2PO4/Na2HPO4 at pH 7.8) or JT002 at 30 mg/kg was administered orally once daily for 30 days starting on Day 1. Tamoxifen (free base) (MP Biomedicals, Solon, OH, USA) was prepared in 90% sunflower seed oil and 10% ethanol and administered at 50 mg/kg intraperitoneally (IP) daily for 4 consecutive days, starting on Day 1, followed by a booster injection on Day 16. Mice were weighed every day to monitor compound activity. On Day 29, a submandibular cheek bleed was performed to obtain whole blood for total blood cell counting. Mice were euthanized on Day 30 and blood and livers were harvested and stored appropriately. Tissue specimens were fixed in 10% formalin and subsequently embedded in paraffin for histopathological assessments, or snap frozen in liquid N2 and stored in low temperature freezers. Complete blood counts and differentials were conducted on a HemaVet Auto Blood Analyzer (Drew Scientific, Miami Lakes, FL, USA). In vitro quantitative determination of alanine aminotransferase (ALT) in serum was performed using the Infinity™ ALT (GPT) Liquid Stable Reagent (cat. n. TR71121, Fisher Diagnostics, Middletown, VA, USA). Sirius Red staining and immunohistochemistry for hepatic MPO and αSMA were performed as described previously.

`CO[C@@H]1COc2c(S(=O)(=O)NC(=O)Nc3c4c(cc5c3CCC5)CCC4)cnn2C1` [JT002] was tested. Which body weight loss did it give?
The body weight loss was “prevented the body weight loss”.

What about the circulating eosinophil count of the same compound?
The circulating eosinophil count was “strong trend for reduced”.

And the circulating neutrophil count?
Its circulating neutrophil count is “significant normalization”.

And the “circulating total white blood cell count” value?
The value was “significant normalization”.

And the “degree of liver inflammation by H&E staining” value?
Its value is “visible reduction in the degree of inflammation”.

And the “hepatic collagen content (Picrosirius red staining)” value?
Its value is “considerably reduced”.

And the “hepatic gene expression of Acta2” value?
The value was “substantially downregulated”.

And the “hepatic gene expression of Casp1” value?
Its value is “substantially reduced”.

And the “hepatic gene expression of Ctgf” value?
Its value is “substantially downregulated”.

What about the “hepatic gene expression of Il1b” value of the same compound?
The value was “substantially reduced”.

What about the “hepatic gene expression of Mpo” value of the same compound?
Its value is “substantially reduced”.

What about the “hepatic gene expression of Pycard (ASC)” value of the same compound?
Its value is “substantially reduced”.

And the “reduction in hepatic immunostaining for αSMA (HSC activation)” value?
Its value is 93%.

And the “reduction of hepatic neutrophil recruitment (myeloperoxidase immunostaining)” value?
Its value is 91%.

What about the “liver weight as a percent of body weight” value (vehicle 9.4) of the same compound?
The value was 5.7%.

And the “serum ALT level” value (vehicle 186 U/L)?
Its value is 93 U/L.
